Reference: US5728685A, “Methods of treating inflammation using cell adhesion inhibitors” (Glycomed Incorporated, priority 1995, dated 1998)

What was measured:
[1] = test system: L-Selectin; conditions: cited from earlier work
[2] = test system: E-SELECTIN (E Selectin-IgG chimera); assay: ELISA: inhibition of E-selectin binding to 2,3 sLex glycolipid
Excerpt: (§1) E-SELECTIN transfected COS cells produced by the above method may be used to assay for glucuronyl glycolipid ligands. Similarly, COS cells may be transfected with cDNAs that encode L-SELECTIN and/or P-SELECTIN. The production and characterization of L-SELECTIN IgG chimera constructs have been previously described by Watson S. R. et al., (1990) J. Cell Biol. 110:2221-2229. This chimera contains two complement binding domains, consistent with its natural expression. See Watson S. R. et al., (1991) J. Cell Biol. 115:235-243. P-SELECTIN chimera was constructed in a similar manner as described by Walz, G., et al (1990) Science 250, 1132-1135, and Aruffo, A. et al. (1991) Cell, 67, 35-44, respectively. The chimeras may be expressed in a suitable host cell, for example, 293 cells and purified. Protein A affinity chromatography is the preferred method of purification. E-SELECTIN and P-SELECTIN may be constructed with truncated complement binding domains to standardize the size of the chimeras and to facilitate their secretion. A variation of the above assay is to genetically engineer cells to express high levels of L-SELECTIN, E-SELECTIN, or P-SELECTIN on their surface, and to use the cells in lieu of purified selectin. Radiolabeled COS cells have been used in this type of assay, and can be transfected with cDNA that encodes for L-SELECTIN, E-SELECTIN or P-SELECTIN. […] The number of adherent cells reflects the capacity of the ligand to bind to the selectin.
(§2) Compounds 13a, 13b, 26 and 31 were tested for their capacity to bind to E, L and P selectin. The ELISA assay used consists of evaporating 2,3 sLex glycolipid, at 25 picomoles per well, onto microtiter wells, and then washing the excess off with water. The wells are blocked with 5% BSA at room temperature for an hour and then washed with PBS containing 1 mM Ca. While the plate is being blocked, biotin labelled goat F(ab')2 IgG (Fc specific) and streptavidinalkaline phosphatase diluted 1:1500 in 1% BSA-PBS (1 mM Ca) are combined with either the E, L or P Selectin-IgG chimera (L91-10) at 200 ng/mL and incubated at 37° C. for 15 minutes to allow a complex to form. This provides a soluble "multivalent" receptor. Compounds 13a and 13b were added at final concentrations ranging from 1.5 to 5.0 mM to the soluble receptor and allowed to react at 37° C. for 45 minutes. The solutions were then placed in the microtiter wells that had been washed after being blocked, and the plates incubated at 37° C. for 45 minutes to allow the soluble receptor to bind to the known natural ligand, 2,3 sLex glycolipid. The positive control was the signal produced by soluble "multivalent" receptor reacted with only the ligand evaporated to the microtiter well. This was considered "100% binding." The signal produced by receptor previously reacted with inhibitor is divided by the signal produced by the positive control, multiplied by 100, to calculate % receptor bound in the presence of the inhibitor. The reciprocal of this is % inhibition.

[3] = test system: L-SELECTIN (L Selectin-IgG chimera); assay: ELISA: inhibition of L-selectin binding to 2,3 sLex glycolipid
Excerpt: as §1
as §2, with “Compounds 13a and 13b were added at final concentrations ranging from 1.5 to 5.0 mM to the soluble receptor and allowed to react at 37° C. for 45 minutes.” left out

[4] = test system: neutrophil-dependent injury to the lung endothelium and alveolar epithelium; assay: Acute Lung Injury Assay (acid aspiration injury); format: in vivo, New Zealand White rabbits; conditions: 10 mg/kg/hr IV; for Alveolar-arterial blood oxygen gradient: as compared to control animals
Excerpt: Experiments were done to determine the effectiveness of compounds 13b or 31 in their ability to reduce neutrophil-dependent injury to the lung endothelium and alveolar epithelium following acid aspiration injury.
Female New Zealand White rabbits (1 each/group, approx. 2 KG each) were anesthetized with halothane and ventilated with positive pressure ventilation supplemented with oxygen. Vascular catheters were placed in the carotid artery, into the internal jugular vein, and a tracheostomy was made for positive pressure ventilation. A low pH solution (HCl, pH 1.5) was installed in Ringer's lactate (osmolality=approximately 100) at a dose of 3 ml/kg into the trachea to stimulate a gastric aspiration induced lung injury. Compound 13b or 31 were injected (10 mg/kg/hr IV) 5 minutes prior to intratracheal instillation of the low pH solutions continued by hourly injections until the end of the experiment. Appropriate controls were used. An intravascular as well as an intra-alveolar radiolabelled protein tracer was injected to quantify lung endothelial and alveolar epithelial protein permeability. Arterial blood gases, systemic blood pressure and airways were monitored. At the end of 6 hours the lungs were removed and alveolar fluid was sampled from both lungs in order to measure the concentration of native protein as well as radiolabelled proteins in the airspaces to calculate lung vascular and lung epithelial permeability. Also, one lung was lavaged in order to count the neutrophils that are present in the airspaces of the lungs. Extravascular lung water measurements was done on the lung which was not lavaged. Histological samples were taken from selected portions of the lung.

[5] = test system: mammalian hepatocytes; conditions: Lee et al. 1984, read-out: IC50 for inhibition of labeled ASOR binding; cited from earlier work
[6] = test system: P-SELECTIN; conditions: cited from earlier work
[7] = test system: P-SELECTIN (P Selectin-IgG chimera); assay: ELISA: inhibition of P-selectin binding to 2,3 sLex glycolipid
Excerpt: as §1, §2

[8] = test system: adhesion of human neutrophils in the rabbit isolated heart; assay: Reperfusion Injury Assay: complement-induced neutrophil adhesion in isolated perfused heart; parameters: species or system human neutrophils; New Zealand White rabbit heart
Excerpt: Experiments were done to determine the effectiveness of compound 13b in decreasing adhesion of human neutrophils in the rabbit isolated […]. Addition of the human plasma to the rabbit isolated […] results in activation of the complement components found within the plasma, which in turn promotes an increase in the neutrophil accumulation. This model is used to determine the effect of lactose derivatives on inhibiting complement-induced neutrophil adhesion.
Hearts from New Zealand White rabbits were excised, mounted on a modified Langendorff apparatus and perfused with Krebs-Heinseleit buffer. Cardiac functional parameters were monitored upon a Grass Model 79D polygraph machine. 4% normal human plasma (NHP) was added to the recirculating buffer. Ten minutes after the addition of the plasma, 13b (0.1 mg/ml) was added to the perfusate. After 15 minutes of perfusion with the plasma, 51-chromium labelled human neutrophils (1×10^5 /ml) were added to the perfusate and allowed to recirculate for an additional 15 minutes. At the end of this time the hearts were washed with fresh buffer to remove non-specifically bound neutrophils, dried and counted in a well type gamma-counter. A concentration response curve was generated using concentrations of 0.001, 0.01 and 0.1 mg/ml. Six hearts were used for each of these concentrations.
Table 4 lists the results, expressed as the percent inhibition of neutrophil accumulation.

Molecule: CC(=O)NC1C(O)CC(OC2C(O)C(CO)OC(OC3C(CO)OC(O)C(NC(C)=O)C3OC3OC(C)C(O)C(O)C3O)C2O)(C(=O)O)OC1C(O)C(O)CO (stereo not drawn) [sialyl Lewis X, NeuNAc α2-3-Gal-β1-4(Fucα1-3)-GlcNAc]
- binding to L-Selectin [1]: binds

Molecule: CCCCCCCCO[C@@H]1O[C@H](CO)[C@@H](O[C@@H]2O[C@H](CO)[C@H](O)[C@H](OS(=O)(=O)O)[C@H]2O)[C@H](O)[C@H]1O [Compound 31, Octyl 4-O-(sodium β-D-galactopyranosyl 3-sulfate)-β-glucopyranoside]
- inhibition of binding of E selectin to 2,3 sLex glycolipid (in words) [2]: inactive
- % INHIBITION of E-selectin binding to sLeX ([2]; 0.5 mM): 0%
- % INHIBITION of E-selectin binding to sLeX ([2]; 1.0 mM): 0%
- % INHIBITION of E-selectin binding to sLeX ([2]; 2.0 mM): 0%
- % INHIBITION of E-selectin binding to sLeX ([2]; 4.0 mM): 0%
- inhibition of binding of L selectin to 2,3 sLex glycolipid (in words) [3]: inactive
- % INHIBITION of L-selectin binding to sLeX ([3]; 0.5 mM): 0%
- % INHIBITION of L-selectin binding to sLeX ([3]; 1.0 mM): 0%
- % INHIBITION of L-selectin binding to sLeX ([3]; 2.0 mM): 0%
- % INHIBITION of L-selectin binding to sLeX ([3]; 4.0 mM): 0%
- Alveolar-arterial blood oxygen gradient [4]: decrease
- neutrophil-dependent injury to the lung endothelium and alveolar epithelium ([4]; following acid aspiration injury): effectively reduced neutrophil-dependent injury

Molecule: OC[C@H]1O[C@@H](O[C@H]2[C@H](O)[C@@H](O)C(O)O[C@@H]2CO)[C@H](O)[C@@H](O)[C@H]1O (stereo partly shown) [single valent lactose, lactose]
- IC50 [5]: 500 µM

Molecule: sulfatides
- binding to P-Selectin [6]: bind

Molecule: C[C@@H]1O[C@@H](O[C@@H]2[C@@H](O)[C@H](OCC[Si](C)(C)C)O[C@H](CO)[C@H]2O[C@@H]2O[C@H](CO)[C@H](O)[C@H](OS(=O)(=O)O)[C@H]2O)[C@@H](O)[C@H](O)[C@@H]1O [Compound 13a, 2-(Trimethylsilyl) ethyl O-α-L-fucopyranosyl-(1→3)-O-[sodium-β-D-galactopyranosyl3-sulfate-(1→4)]-β-D-glucopyranoside]
- inhibition of binding of E selectin to 2,3 sLex glycolipid (in words) [2]: inhibit binding of E selectin to 2,3 sLex glycolipid
- % INHIBITION of E-selectin binding to sLeX ([2]; 1.25 mM): 30%
- % INHIBITION of E-selectin binding to sLeX ([2]; 2.5 mM): 34%
- % INHIBITION of E-selectin binding to sLeX ([2]; 5.0 mM): 48%
- inhibition of binding of L selectin to 2,3 sLex glycolipid (in words) [3]: inhibit binding of L selectin
- % INHIBITION of L-selectin binding to sLeX ([3]; 1.25 mM): 13%
- % INHIBITION of L-selectin binding to sLeX ([3]; 2.5 mM): 27%
- % INHIBITION of L-selectin binding to sLeX ([3]; 5.0 mM): 47%

Molecule: CCCCCCCCO[C@@H]1O[C@H](CO)[C@@H](O[C@@H]2O[C@H](CO)[C@H](O)[C@H](OS(=O)(=O)O)[C@H]2O)[C@H](O[C@@H]2O[C@@H](C)[C@@H](O)[C@@H](O)[C@@H]2O)[C@H]1O [Compound 26]
- inhibition of binding of E selectin to 2,3 sLex glycolipid (in words) [2]: inhibit binding of E selectin to 2,3 sLex glycolipid
- % INHIBITION of E-selectin binding to sLeX ([2]; 0.5 mM): 0%
- % INHIBITION of E-selectin binding to sLeX ([2]; 1.0 mM): 30%
- % INHIBITION of E-selectin binding to sLeX ([2]; 2.0 mM): 50%
- % INHIBITION of E-selectin binding to sLeX ([2]; 4.0 mM): 70%
- % INHIBITION of L-selectin binding to sLeX ([3]; 0.5 mM): 0%
- % INHIBITION of L-selectin binding to sLeX ([3]; 1.0 mM): 30%
- % INHIBITION of L-selectin binding to sLeX ([3]; 2.0 mM): 30%
- % INHIBITION of L-selectin binding to sLeX ([3]; 4.0 mM): 30%
- % INHIBITION of P-selectin binding to sLeX ([7]; 0.5 mM): 0%
- % INHIBITION of P-selectin binding to sLeX ([7]; 1.0 mM): 20%
- % INHIBITION of P-selectin binding to sLeX ([7]; 2.0 mM): 40%
- % INHIBITION of P-selectin binding to sLeX ([7]; 4.0 mM): 45%
- inhibition of P selectin binding to 2,3 sLex glycolipid (in words) ([7]; as compared to L-selectin): better inhibitor of P selectin (as compared to L-selectin)

Molecule: C[C@@H]1O[C@@H](O[C@H]2[C@H](O[C@@H]3O[C@H](CO)[C@H](O)[C@H](OS(=O)(=O)O)[C@H]3O)[C@@H](CO)OC(O)[C@@H]2O)[C@@H](O)[C@H](O)[C@@H]1O (stereo partly drawn) [Compound 13b, O-α-L-fucopyranoayl-(1→3)-O-[sodium β-D-galactopyranosyl 3-sulfate-(1→4)]-D-glucopyranose]
- inhibition of binding of E selectin to 2,3 sLex glycolipid (in words) [2]: inhibit binding of E selectin to 2,3 sLex glycolipid
- % INHIBITION of E-selectin binding to sLeX ([2]; 1.25 mM): 48.5%
- % INHIBITION of E-selectin binding to sLeX ([2]; 2.5 mM): 45.4%
- % INHIBITION of E-selectin binding to sLeX ([2]; 5.0 mM): 82.5%
- inhibition of binding of L selectin to 2,3 sLex glycolipid (in words) [3]: inhibit binding of L selectin
- % INHIBITION of L-selectin binding to sLeX ([3]; 1.25 mM): 90%
- % INHIBITION of L-selectin binding to sLeX ([3]; 2.0 mM): 100%
- % INHIBITION of L-selectin binding to sLeX ([3]; 2.5 mM): 100%
- Alveolar-arterial blood oxygen gradient [4]: decrease
- degree of inhibition of neutrophil adhesion (in words) ([8]; 0.1 mg/ml): most significant degree of inhibition
- inhibition of neutrophil adhesion (in words) ([8]; 0.001, 0.01 and 0.1 mg/ml): inhibited neutrophil adhesion in a concentration-dependent manner
- inhibition at 100 µg/mL ([8]; Neutrophil, Table 4, 13b (0.1 mg/ml) added to the perfusate, read-out: % Neutrophil Inhibition (percent inhibition of neutrophil accumulation)): 35%
